The results in this text go back to patent publication US8969556B2, “Purine-based triazoles” (Case Western Reserve University, priority 2010, dated 2015).

“Also recorded” adds a separate entry of the source.

The experiment concerns hippocampal slice cultures. Put plainly: Aβ oligomer-induced neuronal cell death by PI staining (PI uptake) in hippocampal slice cultures. To be noted: compound 1 μM, 1 h pretreatment, then Aβ oligomers 5 μM, 48 h; mouse hippocampal slices.
Experimental: In this Example, we used a convenient assay for neuronal cell death, which was induced by incubation with Aβ oligomers in hippocampal slice cultures. The binding of propidium iodide (PI) with DNA of dead cells gives characteristic fluorescence that could be followed by fluorescence microscopy. Since PI is impermeable to live cell membranes, the observed fluorescence is indicative of the extent of dead cell populations.
1.0 mg of Δβ1-42 peptide was dissolved in 120 μL of hexafluoroisopropanol for 60 min at room temperature, and placed back on ice for 5-10 min. Hexafluoroisopropanol was evaporated overnight in the hood at room temperature. The sample was dissolved by 100% DMSO by adding 20 μL of fresh anhydrous DMSO (Sigma Hybri-Max) to 0.45 mg of the peptide, and diluted to 5 mM peptide stock into medium. Diluted peptide was incubated at 4° C. for 24 h, and then centrifuged at 14,000 g for 10 min in the cold. Before treating slice culture with Δβ oligomers, the oligomers were incubated at room temperature for 20 h.
Hippocampal slice cultures were prepared from 7-10 day-old mouse pups. Slices were cut at 400 μm on a Mcllwain tissue chopper, transferred to Millicell (Millipore Corp., Bedford, Mass.) membrane inserts (0.4 μm), and placed in 6-well culture plated. The upper surfaces of the slices were exposed to a humidified 37° C. atmosphere containing 5% CO2. Slice culture media consisted of basal Eagles medium with Earle's balanced salt solution, 20% heat-inactivated horse serum, enriched with glucose to a concentration of 5.6 mM. The medium was changed every other day. Slices were examined periodically for viability, and any dark or abnormal slices were discarded.
The effects of Δβ oligomers were tested in the slices which had been maintained for 15-20 days in vitro. All reagents were added to serum free medium (no horse serum). Δβ oligomers were added to cultures in serum free medium. Vehicles were treated the same way except with no peptide.
To analyze the degree of hippocampal neuronal cell death, hippocampal slices were stained by adding PI into slice culture medium at a concentration of 5 μg/mL. At indicated times after Δβ oligomers treatment, the degree of hippocampal neuronal death was evaluated by microscopic observation of PI uptake as described previously. […] The intensity of the fluorescence was quantitatively analyzed using Scion Image. The images were expressed as an arbitrary unit of PI uptake.
Mouse hippocampal slice cultures were treated with Aβ oligomers in the presence of PI as the staining agent. The degree of hippocampal neuronal death was monitored by fluorescence microscopic observation of the PI uptake. The intensities of the fluorescence were conveniently analyzed using Scion images. The intensity of the PI fluorescence reflects the relative number of the dead cells, since PI cannot permeate the live cell membranes.
For the molecule `Clc1nc(NCc2ccccc2)c2ncn(Cc3cn(Cc4ccccc4)nn3)c2n1` [Compound 6, 2-Chloro-6-benzylamino-9-(1-benzyl-1H-1,2,3-triazol-4-yl-methyl)purine], the “neuroprotective effect against Aβ-induced neurotoxicity (neuronal cell survival, PI uptake)” value (“neuroprotective effect” for short) is “only marginal effects”.
On to `CC[C@H](CO)Nc1nc(NCc2ccccc2)c2ncn(C(C)C)c2n1` [Roscovitine, reference compound], for which the “neuroprotective effect” value is listed as “neuronal cell survival rates comparable to those of the control experiments”.
The same measure for `Fc1c(F)c(F)c(Cn2cc(Cn3cnc4c(NCc5ccccc5)nc(Cl)nc43)nn2)c(F)c1F` [Compound 9, 2-Chloro-6-benzylamino-9-[1-(pentafluorobenzyl)-1H-1,2,3-triazol-4-yl-methyl]purine]: “virtually no neuroprotective effect”; for `Fc1cccc(F)c1Cn1cc(Cn2cnc3c(NCc4ccccc4)nc(Cl)nc32)nn1` [Compound 8, 2-Chloro-6-benzylamino-9-[1-(2,6-difluorobenzyl)-1H-1,2,3-triazol-4-yl-methyl]purine]: “only marginal effects”.
Regarding `CN1CC[C@H](c2c(O)cc(O)c3c(=O)cc(-c4ccccc4Cl)oc23)[C@H](O)C1` [Flavopiridol, reference compound], the “neuroprotective effect” value was “neuronal cell survival rates comparable to those of the control experiments”.
Regarding `Fc1ccccc1Cn1cc(Cn2cnc3c(NCc4ccccc4)nc(Cl)nc32)nn1` [Compound 7, 2-Chloro-6-benzylamino-9-[1-(2-fluorobenzyl)-1H-1,2,3-triazol-4-yl-methyl]purine], the “neuroprotective effect” value is reported as “neuronal cell survival rates comparable to those of the control experiments; also recorded: effectively suppressed Aβ-induced neurotoxicity”.
